Measured values as given in ChEMBL document CHEMBL1201862, “PubChem BioAssay data set” (2004).
The source made the active and inactive calls.

How the values were obtained:
[1] = target: T1, Long-chain-fatty-acid--AMP ligase FadD28 (Mycobacterium tuberculosis, UniProt P9WQ59); test: Fluorescence polarization aasay to screen for inhibitors that compete for the binding of FadD28 to a bisubstrate Measured in Biochemical System Using Plate Reader - 2147-01_Inhibitor_Dose_CherryPick_Activity.; assay type: functional, Mycobacterium tuberculosis H37Rv
T1 sequence (P9WQ59 whole entry): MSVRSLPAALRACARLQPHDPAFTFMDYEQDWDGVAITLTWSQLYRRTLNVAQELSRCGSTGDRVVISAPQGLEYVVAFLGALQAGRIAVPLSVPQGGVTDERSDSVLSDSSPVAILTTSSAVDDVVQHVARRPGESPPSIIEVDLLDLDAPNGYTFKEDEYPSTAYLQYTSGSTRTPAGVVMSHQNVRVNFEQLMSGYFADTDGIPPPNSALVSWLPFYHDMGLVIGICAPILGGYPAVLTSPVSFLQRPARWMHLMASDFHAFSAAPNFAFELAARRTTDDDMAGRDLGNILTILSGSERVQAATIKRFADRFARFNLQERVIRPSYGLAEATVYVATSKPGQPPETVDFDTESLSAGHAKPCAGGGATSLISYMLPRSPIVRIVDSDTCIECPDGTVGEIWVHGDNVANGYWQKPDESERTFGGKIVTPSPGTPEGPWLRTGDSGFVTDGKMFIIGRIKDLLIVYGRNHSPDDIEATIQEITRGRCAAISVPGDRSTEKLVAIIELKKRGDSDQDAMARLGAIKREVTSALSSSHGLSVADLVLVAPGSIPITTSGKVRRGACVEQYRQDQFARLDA

[2] = viability loss in THP-1 monocytes – THP-1 cells, cytotoxicity control for Vif-APOBEC3G degradation inhibitor project, dose response (AID 1117359); assay type: functional; details: THP-1
Caspase-6 = target: T2, Caspase-6 (Homo sapiens, UniProt P55212); test: inhibition of CASP6 peptide cleavage – biochemical, VEID-R110 fluorescence, cherry-pick, dose response (AID 720632)
T2 sequence (P55212 whole entry): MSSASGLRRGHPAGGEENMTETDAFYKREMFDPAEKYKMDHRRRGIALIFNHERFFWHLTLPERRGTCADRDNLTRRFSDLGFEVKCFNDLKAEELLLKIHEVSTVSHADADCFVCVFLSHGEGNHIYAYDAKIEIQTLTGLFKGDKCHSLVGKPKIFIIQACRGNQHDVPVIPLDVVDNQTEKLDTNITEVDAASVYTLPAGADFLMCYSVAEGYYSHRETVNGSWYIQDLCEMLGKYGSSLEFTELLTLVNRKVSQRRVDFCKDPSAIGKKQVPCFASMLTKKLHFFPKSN

[3] = viability of uninfected HEp-2 cells – cell-based, HTS, cytotoxicity control for RSV inhibitor project, dose response (AID 2410); assay type: functional; details: human respiratory syncytial virus
[4] = off-target signal loss in HeLa-CEM21 co-culture – HeLa F-luc CTL cells, cherry-picked, counter-screen for HIV-1 Env fusion inhibitor project, dose response (AID 652040); assay type: functional, cell-based;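 also: potency for signal decrease marking cytotoxic or nonspecific inhibition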
[5] = blockers of HIV-1 envelope-mediated cell-cell fusion – cherry-pick, dose response (AID 652057); assay type: functional, cell-based
[6] = HIV-1 AD8 envelope cell-cell fusion blockers – cherry-pick, dose response (AID 652062); assay type: functional, cell-based;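 also: luciferase signal from cell-cell fusion driven by HIV-1 clade B AD8 Env; potency is for inhibitors of fusion seen as a drop in luminescence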
[7] = blockers of HIV-1 ZM109 envelope-driven cell-cell fusion – HeLa effector, CEM target cells, luciferase, cherry-pick, dose response (AID 652058); assay type: functional, cell-based;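 also: luciferase signal from HIV-1 Env mediated cell-cell fusion of effector and target cells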
[8] = blockers of CRF-binding protein–CRF-R2 complex – cell-based, uHTS hits, 384-well, dose response (AID 651639); assay type: functional, Homo sapiens; details: read-out: IC50_Mean
[9] = target: T3, Corticotropin-releasing factor receptor 2/Corticotropin-releasing factor-binding protein (Homo sapiens, UniProt P24387+Q13324); test: Dose Response confirmation of uHTS hits for small molecule antagonists of the CRF-binding protein and CRF-R2 receptor complex.; assay type: functional; details: read-out: IC50_Mean
T3 sequence (Q13324 whole entry): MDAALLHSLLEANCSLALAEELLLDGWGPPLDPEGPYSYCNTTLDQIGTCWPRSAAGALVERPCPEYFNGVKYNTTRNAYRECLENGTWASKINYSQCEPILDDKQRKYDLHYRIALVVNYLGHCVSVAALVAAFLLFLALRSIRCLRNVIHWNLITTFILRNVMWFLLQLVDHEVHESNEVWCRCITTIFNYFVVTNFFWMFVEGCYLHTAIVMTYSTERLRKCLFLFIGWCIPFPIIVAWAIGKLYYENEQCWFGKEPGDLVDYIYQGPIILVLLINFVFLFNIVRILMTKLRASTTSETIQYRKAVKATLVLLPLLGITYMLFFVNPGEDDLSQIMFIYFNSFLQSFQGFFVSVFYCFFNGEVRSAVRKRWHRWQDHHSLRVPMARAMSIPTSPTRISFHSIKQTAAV
T3 sequence (P24387 whole entry): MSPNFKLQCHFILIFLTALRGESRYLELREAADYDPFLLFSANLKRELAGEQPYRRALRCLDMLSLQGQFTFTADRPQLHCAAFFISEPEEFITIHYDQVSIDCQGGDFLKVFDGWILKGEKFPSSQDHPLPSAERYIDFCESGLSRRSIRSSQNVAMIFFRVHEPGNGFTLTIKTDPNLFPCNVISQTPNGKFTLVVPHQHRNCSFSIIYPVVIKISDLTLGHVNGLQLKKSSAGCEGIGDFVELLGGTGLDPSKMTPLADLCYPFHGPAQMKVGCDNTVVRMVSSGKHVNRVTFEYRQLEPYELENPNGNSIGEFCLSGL

[10] = target: T3, Corticotropin-releasing factor receptor 2/Corticotropin-releasing factor-binding protein; test: activators of CRF receptor 2 with binding protein – uHTS hits, confirmation (AID 602473); assay type: functional; details: read-out: EC50_Mean
[11] = viability loss in HEK293 cells – cell-based, plate reader, cherry-picked samples, cytotoxicity control, dose response (AID 743446); assay type: functional
[12] = A549 cell cytotoxicity, dose response, cytotoxicity control, plate reader, cherry-pick, antagonist series (AID 743412); assay type: functional, cell-based
[13] = blockers of bursicon-stimulated LGR2 cAMP reporter – cell-based, HEK293, CRE-luciferase reporter, cherry pick, set 2, dose response (AID 743343); assay type: functional;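 also: transfected cells were stimulated with diluted bursicon conditioned medium after compound addition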
[14] = toxicity toward HepG2 liver cells – cell-based, plate reader, cherry-pick, antagonist series, cytotoxicity control, dose response (AID 743416); assay type: functional
[15] = blockade of melanocortin 4 receptor signaling – cell-based, plate reader, cherry pick, counter-screen for LGR2 antagonist project, dose response (AID 743444); assay type: functional;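 also: transfected HEK 293 cells stimulated with alpha-MSH peptide; potency of inhibitors of the alpha-MSH evoked signal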

Structure (SMILES): CC(=O)Nc1ccc(/N=C(/C2=C(O)c3ccccc3C2=O)c2ccccc2)cc1
- AC50 [1]: > 100 µM (inactive)

Structure (SMILES): Cc1ccc(S(=O)(=O)NCCC(=O)N2CCN(C/C=C/c3ccccc3)CC2)cc1
- CC50 [2]: > 40 µM (active)

Structure (SMILES): O=C(Cc1ccccc1)N1CCCCN2[C@H](CO)[C@@H](c3ccc(C#Cc4ccccc4)cc3)[C@H]2C1
- AC50 (Caspase-6): 47.3 µM (active)

Structure (SMILES): CC[C@@]12C(=O)N(c3ccc(C)cc3)C(=O)N1[C@H](c1ccc(Br)cc1)[C@@H]1C(=O)N(C(C)(C)C)C(=O)[C@@H]12
- CC50 [3]: > 50 µM (active)
- AC50 [4]: 0.559 µM (active)
- AC50 [5]: 301 nM (active)
- AC50 [6]: 1.06 µM (active)
- AC50 [7]: < 0.5 µM (active)

Structure (SMILES): CC(OC(=O)CC1CCCC1)C(=O)Nc1ccc(Cl)cn1 (centres undefined)
- CC50 [2]: > 40 µM (active)

Structure (SMILES): O=C(COC(=O)c1cnc(Cl)c(Cl)c1)NCCC1=CCCCC1
- IC50 [8]: 7.15 µM (active)
- IC50 [9]: 7.16 µM (active)
- EC50 [10]: > 53 µM (inactive)

Structure (SMILES): Cc1ccsc1/C=N\NC(=O)c1[nH]nc2c1CCC2
- AC50 [11]: 16.4 µM (active)
- AC50 [12]: 3.65 µM (active)
- AC50 [13]: 6.59 µM (active)
- AC50 [14]: 4.37 µM (active)
- AC50 [15]: 7.75 µM (active)

Structure (SMILES): COc1ccccc1N1CCN(CC(O)COCCOc2ccc(Br)cc2)CC1 (centres undefined)
- CC50 [2]: 29.9 µM (active)

Structure (SMILES): COc1ccc(C(=O)NCc2ccc(C)cc2)cc1S(=O)(=O)N1CCCC1
- AC50 [1]: 19 µM (active)

Structure (SMILES): C=C1CCN([C@H](C(=O)OCc2ccc(C)cc2)C(C)C)S(=O)(=O)c2ccccc21
- AC50 [4]: 5.69 µM (active)
- AC50 [5]: 3350 nM (active)
- AC50 [6]: 13.2 µM (active)
- AC50 [7]: 7.43 µM (active)

Structure (SMILES): Cn1cccc1/C=C1/C(=O)NC(=O)N(Cc2ccc(F)cc2)C1=O
- CC50 [2]: > 40 µM (active)
